Tests used:
[1] = test system: voltage-gated sodium channels; test: Antagonism of veratridine-stimulated Na+ influx in neocortical neurons (SBFI); format: cell-based, Swiss-Webster mice; conditions: for IC50: primary mouse neocortical neurons, three-parameter logistic fit
Protocol: (§1) Primary cultures of neocortical neurons were obtained from embryonic day 16 Swiss-Webster mice as described elsewhere. Briefly, pregnant mice were euthanized by CO2 asphyxiation and embryos were removed under sterile conditions. Neocortices were collected, stripped of meninges, minced by trituration with a Pasteur pipette, and treated with trypsin for 25 min at 37°C. The cells were then dissociated by two successive trituration and sedimentation steps in soybean trypsin inhibitor and DNase containing isolation buffer, centrifuged, and resuspended in Eagle’s minimal essential medium with Earle’s salt (MEM) and supplemented with 1 mM L-glutamine, 10% fetal bovine serum, 10% horse serum, 100 IU/mL penicillin, and 0.10 mg/mL streptomycin (pH 7.4). Cells were plated onto poly-L-lysine-coated 96-well (9 mm), clear-bottomed, black-well culture plates (MidSci, St. Louis, USA) at a density of 1.5 × 10^5 cells/well. Cells were then incubated at 37°C in a 5% CO2 and 95% humidity atmosphere. The culture media was changed every other day, starting from day 5 in-vitro using a serum-free growth medium containing Neurobasal Medium supplemented with B-27, 100 IU/mL penicillin, 0.10 mg/mL streptomycin, and 0.2 mM L-glutamine. Neocortical cultures were used in experiments between 10–11 days in-vitro. All animal use protocols were approved by the Institutional Animal Care and Use Committee (IACUC) of Creighton University.
[Na^+]i measurement and full in-situ calibration of sodium-binding benzofuran isophthalate (SBFI) fluorescence ratio were performed as described previously. Cells grown in 96-well plates were washed four times with Locke's buffer using an automated microplate washer (BioTek Instruments, Winooski, VT). After measuring the background fluorescence of each well, cells were incubated for 1 h at 37°C with dye-loading buffer (100 μL/well) containing 10 μM SBFI-AM (Invitrogen) and 0.02% Pluronic F-127 (Invitrogen). Cells were washed five times with Locke's buffer, leaving a final volume of 150 μL in each well. Jamaicamide addition and preincubation was as described above for Ca^2+ concentration determination. […] Fluorescence readings were taken once every 5 s for 60 s to establish the baseline, then either vehicle (control) or veratridine was added and fluorescence was monitored for an additional 260 s. After correcting for background fluorescence, SBFI fluorescence ratios (340/380) and concentration-response graphs were generated.
(§2) The Fluo-3 and SBFI raw fluorescence emission data were exported to an Excel work sheet. The Fluo-3 fluorescence or SBFI fluorescence ratios (340/380) versus time were analyzed and concentration-response graphs generated using GraphPad Prism software (GraphPad Software Inc., San Diego, CA).

[2] = test system: veratridine-stimulated Ca2+ influx in neocortical neurons; test: Antagonism of veratridine-stimulated Ca2+ influx in neocortical neurons (fluo-3); format: cell-based, Swiss-Webster mice; conditions: for IC50: Neuron, primary mouse neocortical neurons, three-parameter logistic fit
Protocol: as §1
Cells grown in 96-well plates were used for determination of intracellular Ca^2+ concentration ([Ca^2+]i). Briefly, the growth medium was removed and replaced with dye-loading medium (100 μL per well) containing 4 μM fluo-3 AM and 0.04% pluronic acid in Locke's buffer. […] The cells were incubated in the presence or absence of jamaicamides for 5–7 minutes at 37°C in a 5% CO2 and 95% humidity atmosphere prior to transfer to a FLEX Station II (Molecular Devices) benchtop scanning fluorescence chamber. The fluorescence measurements were performed at 37°C. The cells were excited at 488 nm and Ca^2+-bound fluo-3 emission was recorded at 538 nm at 2 s intervals. After recording baseline fluorescence for 60 s, either vehicle or veratridine was added to each well at a rate of 26 μL/s; the fluorescence was then monitored for an additional 200 s.
as §2

sodium channel = conditions: at a concentration of 5 μM, Neuro-2a cells; cited from earlier work
[3] = test system: human carcinoma of the nasopharynx (KB) cell line; set-up: method as in PMID 15974628; conditions: cited from earlier work
[4] = test system: human small cell lung cancer (NCI-H187) cell line; set-up: method as in PMID 15974628; conditions: cited from earlier work
actin = test system: actin; set-up: method as in PMID 12088429; conditions: cited from earlier work

## COC(=CC(=O)N1C(=O)C=CC1C)CCNC(=O)CCC=CC(C)CCC(=CCl)CCCC#CI (stereo not drawn) [compound 12, jamaicamide F]
[1]
  IC50: 2300 nM
[2]
  IC50: 4300 nM

## CO/C(=C/C(=O)N1C(=O)C=C[C@@H]1C)CCNC(=O)CC/C=C/C(C)CC/C(=C/Cl)CCCC#CBr (stereo partly drawn) [compound 2, jamaicamide A]
Sodium channel
  Sodium channel blocking activity: sodium channel blocking activity
[1]
  IC50: 1100 nM
[1]; versus 3 and 12, neocortical neurons
  Potency relative to the other two jamaicamides as a sodium channel blocker (Na+ influx): 2-3 times
[2]
  IC50: 1820 nM
[2]; versus 3 and 12
  Potency relative to the other two jamaicamides tested (Ca2+ influx): 2–3 times

## CC(=O)O[C@@H]1c2nc(cs2)C(=O)O[C@@H](CCCC(C)(Cl)Cl)[C@H](C)C(=O)O[C@@H](C(C)(C)O)c2nc(cs2)C(=O)OC1(C)C [compound 1, hectochlorin]
[3]
  LD50: 0.86 µM
[4]
  LD50: 1.20 µM
actin
  Effect on actin polymerization: enhances actin polymerization

## C#CCCC/C(=C\Cl)CCC(C)/C=C/CCC(=O)NCC/C(=C\C(=O)N1C(=O)C=C[C@@H]1C)OC (stereo partly drawn) [compound 3, jamaicamide B]
Sodium channel
  Sodium channel blocking activity: sodium channel blocking activity
[1]
  IC50: 3600 nM
[2]
  IC50: 6880 nM

## CC1C(=O)OC(C(C)(C)O)c2nc(cs2)C(=O)OC(C)(C)C(O)c2nc(cs2)C(=O)OC1CCCC(C)(Cl)Cl (stereo not drawn) [compound 5, Hectochlorin B]
[3]
  LD50: 0.31 µM
[4]
  LD50: 0.32 µM
